Assay [1] deals with male ddy mouse. The assay is described as follows: Sucrose loading test, blood glucose in mice. Type of assay: in vivo. To be noted: oral sucrose 2.5 g/kg, test sample 500 mg/kg body weight, mean n = 5. How it is done:
The animal experimental protocols in this study were approved by the Animal Experiments Committee of the University of Toyama (S-2010 UH-2). Male ddy mice (29-33 g) after an overnight fast were used for acute disaccharide loading tests. Maltose (2.5 g/kg body weight) or Sucrose (2.5 g/kg body weight) as well as the test samples were dissolved in 0.9% NaCl solution and administered to mice via a stomach tube. A control group was loaded with saline only.
Blood samples for glucose measurements were obtained from the tail vein at 0, 15, 30, 60, and 120 min after disaccharide-loading. The blood glucose levels were measured by a portable kit, Antsence II™ (Sankyo Co. Ltd. Tokyo, Japan). The Zizyphus extract HS0810/142/41 as well as the purified compounds were tested in this way.

The subject of assay [2] is glucosidases. Description: Glycosidase panel, glucosidases overall. In kind it is biochemical. Conditions: panel of glucosidases. How it is done: Glycosidase assays were conducted on Compounds 1 and 3 and an extract of Zizyphus used in the disaccharide loading mouse studies to determine if glucosidase inhibition might explain the effects on blood glucose. A panel of glycosidases were used to be sure any activity found was a selective inhibition and not just non-specific binding to the enzyme.
Glycosidase assays were conducted as described by Watson et al. (Phytochemistry 1997, 46, 255) using p-nitrophenyl-substrates (except sialidase which used methylumbeliferyl-N-acetyineuraminic acid as substrate). Assays were carried out in microtitre plates. Enzymes were assayed in 0.1 M citric acid/0.2 M di-sodium hydrogen phosphate (McIlvaine) buffers at the optimum pH for the enzyme. All assays were carried out at 20° C. All enzymes and substrates were purchased from Sigma Aldrich Chemicals Limited. The incubation mixture consisted of 10 μl of enzyme solution, 10 μl of the iminosugars solution and 50 μl of the appropriate 5 mM p-nitrophenyl substrate made up in McIlvaine buffer at the optimum pH for the enzyme. The reactions were stopped with 0.4 M glycine (pH 10.4) during the exponential phase of the reaction. Absorbances were read at 405 nm. Water was substituted for the alkaloids in the blanks. Reactions were carried out in triplicate. […]

For assay [3], the system named is sialidase (NanH from T. forsythia). The assay is described as follows: Sialidase assay with MUNANA substrate. Conditions: 1 mM inhibitor, 2.5 nM sialidase, 0.1 mM MUNANA, pH 7.2. Type of assay: biochemical, Tannerella forsythia. How it is done: Sialidase assays used 1 mM inhibitor (or water without inhibitor) and 2.5 nM sialidase (including NanH from T. forsythia) incubated in the presence of 0.1 mM methylumbeliferyl-N-acetylneuraminic acid, pH 7.2 in 20 mM sodium phosphate buffer. Reactions were stopped at 30 seconds and 60 seconds via addition of ph 10.5 60 mM sodium carbonate buffer. Release of fluorogenic MU was quantified by measuring fluorescence emission at 450 nm, excitation 350 nm. Percentage sialidase activity was expressed as the change in fluorescence between 30 seconds and 60 seconds compared to that of a reaction without inhibitor. Reactions were carried out in triplicate.
MU release can be used to quantify sialidase activity.
1 mM inhibitor (or water without inhibitor) and 2.5 nM sialidase (including NanH from T. forsythia) was incubated in the presence of 0.1 mM MUNANA, pH 7.2 20 mM Sodium Phosphate buffer. Reactions were stopped at 30 seconds and 60 seconds via addition of ph 10.5 60 mM sodium carbonate buffer. Release of fluorogenic MU was quantified by measuring fluorescence emission at 450 nm, excitation 350 nm. Percentage sialidase activity was expressed as the change in fluorescence between 30 seconds and 60 seconds compared to that of a reaction without inhibitor. Reactions were carried out in triplicate.

In assay [4] the target is T1, Amyloglucosidase (Aspergillus niger, UniProt P69328).
T1 construct: purchased Sigma Aldrich Chemicals Limited
The assay is described as follows: Glycosidase assay, p-nitrophenyl substrate. In kind it is biochemical. To be noted: Aspergillus niger enzyme; screened at 0.14 mg mL−1 (footnote: 0.4 mM). How it is done:
(§1) Glycosidase assays were conducted as described by Watson et al. (Phytochemistry 1997, 46, 255) using p-nitrophenyl-substrates (except sialidase which used methylumbeliferyl-N-acetyineuraminic acid as substrate). Assays were carried out in microtitre plates. Enzymes were assayed in 0.1 M citric acid/0.2 M di-sodium hydrogen phosphate (McIlvaine) buffers at the optimum pH for the enzyme. All assays were carried out at 20° C. All enzymes and substrates were purchased from Sigma Aldrich Chemicals Limited. The incubation mixture consisted of 10 μl of enzyme solution, 10 μl of the iminosugars solution and 50 μl of the appropriate 5 mM p-nitrophenyl substrate made up in McIlvaine buffer at the optimum pH for the enzyme. The reactions were stopped with 0.4 M glycine (pH 10.4) during the exponential phase of the reaction. Absorbances were read at 405 nm. Water was substituted for the alkaloids in the blanks. Reactions were carried out in triplicate.
(§2) Enzyme inhibitor solutions—Compounds were dissolved in distilled water at a concentration of 1 mg mL^−1 and then screened at a concentration of 0.14 mg mL^−1 after dilution of the 1 mg mL^−1 in the assay volumes of substrates.

Assay [5] deals with T2, α-D-glucosidase (Oryza sativa subsp. japonica, UniProt Q653V7).
T2 construct: purchased Sigma Aldrich Chemicals Limited
The assay is described as follows: Glycosidase assay, p-nitrophenyl substrate. To be noted: Rice enzyme; screened at 0.14 mg mL−1 (footnote: 0.4 mM). Type of assay: biochemical. As to the method: as §1, §2

For assay [6], the system named is β-D-galactosidase. The assay is described as follows: Glycosidase assay, p-nitrophenyl substrate. Type of assay: biochemical. To be noted: Bovine liver enzyme; screened at 0.14 mg mL−1 (footnote: 0.4 mM). As to the method:
as §1, §2

The subject of assay [7] is Naringinase. The assay is described as follows: Glycosidase assay, p-nitrophenyl substrate. Type of assay: biochemical. To be noted: Penicillium decumbens enzyme; screened at 0.14 mg mL−1 (footnote: 0.4 mM). How it is done:
as §1, §2

The target in assay [8] is T3, α-D-galactosidase (Coffea arabica, UniProt Q42656).
T3 construct: purchased Sigma Aldrich Chemicals Limited
The assay is described as follows: Glycosidase assay, p-nitrophenyl substrate. In kind it is biochemical. Conditions: Green coffee bean enzyme; screened at 0.14 mg mL−1 (footnote: 0.4 mM). As to the method: as §1, §2

The structures appear in SMILES notation.

T3 sequence (Q42656 16-378): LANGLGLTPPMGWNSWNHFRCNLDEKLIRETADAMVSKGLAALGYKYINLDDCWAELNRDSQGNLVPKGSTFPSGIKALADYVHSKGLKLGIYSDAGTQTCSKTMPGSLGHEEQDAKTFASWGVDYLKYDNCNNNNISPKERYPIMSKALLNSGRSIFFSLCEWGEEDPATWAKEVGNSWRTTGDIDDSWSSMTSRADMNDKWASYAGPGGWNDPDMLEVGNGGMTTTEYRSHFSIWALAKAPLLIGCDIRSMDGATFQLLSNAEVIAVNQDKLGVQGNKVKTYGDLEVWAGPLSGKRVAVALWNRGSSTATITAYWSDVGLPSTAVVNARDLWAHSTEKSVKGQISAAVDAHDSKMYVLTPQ
T1 sequence (P69328 25-640): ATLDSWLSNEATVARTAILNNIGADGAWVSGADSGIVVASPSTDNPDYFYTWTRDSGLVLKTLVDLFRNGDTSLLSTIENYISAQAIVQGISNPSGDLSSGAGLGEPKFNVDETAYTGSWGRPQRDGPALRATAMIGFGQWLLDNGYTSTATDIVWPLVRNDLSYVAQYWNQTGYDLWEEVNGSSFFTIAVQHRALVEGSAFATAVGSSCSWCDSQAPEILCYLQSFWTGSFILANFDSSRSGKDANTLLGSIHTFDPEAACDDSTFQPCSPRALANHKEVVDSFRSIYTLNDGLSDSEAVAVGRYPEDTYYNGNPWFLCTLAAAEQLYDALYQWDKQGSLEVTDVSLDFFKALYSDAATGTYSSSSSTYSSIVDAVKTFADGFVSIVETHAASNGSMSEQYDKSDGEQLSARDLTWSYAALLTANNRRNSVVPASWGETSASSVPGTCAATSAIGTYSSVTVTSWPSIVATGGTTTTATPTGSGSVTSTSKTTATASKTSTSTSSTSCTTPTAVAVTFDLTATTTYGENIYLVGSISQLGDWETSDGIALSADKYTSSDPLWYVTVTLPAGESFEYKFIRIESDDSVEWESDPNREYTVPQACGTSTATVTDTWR
T2 sequence (Q653V7 34-885): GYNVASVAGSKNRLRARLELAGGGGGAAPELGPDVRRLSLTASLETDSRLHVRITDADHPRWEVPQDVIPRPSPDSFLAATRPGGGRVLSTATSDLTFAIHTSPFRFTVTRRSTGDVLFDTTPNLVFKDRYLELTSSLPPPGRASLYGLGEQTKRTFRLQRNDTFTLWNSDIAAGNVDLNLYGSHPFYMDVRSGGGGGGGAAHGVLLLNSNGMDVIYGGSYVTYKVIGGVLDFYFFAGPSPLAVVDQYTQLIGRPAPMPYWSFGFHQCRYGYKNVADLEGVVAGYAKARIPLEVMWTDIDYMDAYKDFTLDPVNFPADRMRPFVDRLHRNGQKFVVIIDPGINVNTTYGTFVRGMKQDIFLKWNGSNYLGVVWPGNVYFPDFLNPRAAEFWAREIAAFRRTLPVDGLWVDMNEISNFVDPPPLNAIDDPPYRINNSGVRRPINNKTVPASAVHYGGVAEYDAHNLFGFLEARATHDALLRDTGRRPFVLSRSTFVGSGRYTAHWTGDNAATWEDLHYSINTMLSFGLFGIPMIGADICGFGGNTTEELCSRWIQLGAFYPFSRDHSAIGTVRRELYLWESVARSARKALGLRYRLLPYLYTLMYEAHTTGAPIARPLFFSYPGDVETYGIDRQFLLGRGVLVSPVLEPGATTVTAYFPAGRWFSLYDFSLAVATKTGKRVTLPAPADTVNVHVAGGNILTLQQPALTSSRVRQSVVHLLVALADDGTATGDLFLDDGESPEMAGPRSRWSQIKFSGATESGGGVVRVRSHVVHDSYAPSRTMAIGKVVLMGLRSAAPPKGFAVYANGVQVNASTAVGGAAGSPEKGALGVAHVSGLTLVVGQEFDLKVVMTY

As a reminder, the % inhibition is the drop in the measured response relative to a control, in per cent. With `OC[C@H]1N[C@H](CO)[C@@H](O)[C@@H]1O` [DMDP], the blood glucose in assay [1] (0 min after administration) was found to be 98 mg/dL; in assay [1] (15 min after administration) it was 115 mg/dL; in assay [1] (30 min after administration), 100 mg/dL; in assay [1] (60 min after administration), 88 mg/dL; in assay [1] (120 min after administration) it was 53 mg/dL. Further, in assay [2], the “glucosidase inhibition (in words)” value is on record as “expected strong inhibition of various glucosidases”. Besides, the “% inhibition” value in assay [3] was −2%; in assay [4], 46.84%; in assay [5] it was 94.59%; in assay [6], 98.75%; in assay [7] it was 2.97%; in assay [8], 6.95%.
